# Article PMC9632963, “Preclinical characterization and phase I clinical trial of CT053PTSA targets MET, AXL, and VEGFR2 in patients with advanced solid tumors” (Frontiers in Immunology, 2022)
# Test system: patients with advanced solid tumors
# Experiment: Phase I trial: safety, tolerability, DLT, MTD (CTCAE v4.0)
# Type: in vivo
# Excerpt: Eligible patients had at least one measurable lesion per RECIST v 1.1, Eastern Cooperative Oncology Group (ECOG) performance status of 0 or 1, and adequate hematological, renal, cardiac and hepatic functions. The primary objectives were to assess safety and tolerability as well as to determine the MTD, DLT, and dose recommended for further study. The secondary objectives were to assess the PK and preliminary efficacy of CT053PTSA.
# An initial accelerated titration design was used in the 15 and 30 mg QD cohorts, and the “3+3” schema was used starting in the 60 mg QD cohort. […] The study protocol was approved by an institutional review board at Sun Yat-sen University Cancer Center. Written informed consent was obtained from all the patients before enrollment.
# Descriptive statistics of safety are presented per CTCAE v4.0. Subjects who received at least one dose of CT053PTSA were considered eligible to be evaluated and included in safety analyses. […] According to the RECIST 1.1 criteria, imaging examinations were performed at each specified time point in the protocol. The antitumor activity was measured by RECIST1.1.
compound,measurement,setting,value
Cc1c(C(=O)Nc2ccc(Oc3ccnc4cc(OCC(C)(C)O)ccc34)c(F)c2)c(=O)n(-c2ccccc2)n1C [CT053PTSA],"Platelet count decreased, ≥ G3",150mg (n = 5),1 (20) n (%)
same,"Proteinuria, All",150mg (n = 5),0 n (%)
same,"Proteinuria, ≥ G3",150mg (n = 5),0 n (%)
same,"Pyrexia, All",150mg (n = 5),1 (20) n (%)
same,"Pyrexia, ≥ G3",150mg (n = 5),0 n (%)
same,"Sinus bradycardia, All",150mg (n = 5),1 (20) n (%)
same,"Sinus bradycardia, ≥ G3",150mg (n = 5),0 n (%)
same,"Stomatitis, All",150mg (n = 5),1 (20) n (%)
same,"Stomatitis, ≥ G3",150mg (n = 5),1 (20) n (%)
same,"Vomiting, All",150mg (n = 5),1 (20) n (%)
same,"Vomiting, ≥ G3",150mg (n = 5),0 n (%)
same,"leukopenia, All",150mg (n = 5),3 (60) n (%)
same,"leukopenia, ≥ G3",150mg (n = 5),1 (20) n (%)
same,"neutropenia, All",150mg (n = 5),2 (40) n (%)
same,"neutropenia, ≥ G3",150mg (n = 5),0 n (%)
same,"transaminase elevation, All",150mg (n = 5),4 (80) n (%)
same,"transaminase elevation, ≥ G3",150mg (n = 5),0 n (%)
same,patients with DLT / patients eligible for DLT assessment,150 mg QD,2/4 and Two of four
same,"Anaemia, All",All (n = 20),1 (5) n (%)
same,"Anaemia, ≥ G3",All (n = 20),0 n (%)
same,"Blood chloride decreased, All",All (n = 20),1 (5) n (%)
same,"Blood chloride decreased, ≥ G3",All (n = 20),0 n (%)
same,"Blood creatinine increased, All",All (n = 20),1 (5) n (%)
same,"Blood creatinine increased, ≥ G3",All (n = 20),0 n (%)
same,"Blood potassium decreased, All",All (n = 20),1 (5) n (%)
same,"Blood potassium decreased, ≥ G3",All (n = 20),0 n (%)
same,"Blood sodium decreased, All",All (n = 20),1 (5) n (%)
same,"Blood sodium decreased, ≥ G3",All (n = 20),1 (5) n (%)
same,"Blood uric acid increased, All",All (n = 20),1 (5) n (%)
same,"Blood uric acid increased, ≥ G3",All (n = 20),0 n (%)
same,"Decreased appetite, All",All (n = 20),6 (30) n (%)
same,"Decreased appetite, ≥ G3",All (n = 20),1 (5) n (%)
same,"Diarrhea, All",All (n = 20),2 (10) n (%)
same,"Diarrhea, ≥ G3",All (n = 20),0 n (%)
same,"Dizziness, All",All (n = 20),1 (5) n (%)
same,"Dizziness, ≥ G3",All (n = 20),0 n (%)
same,"Dry mouth, All",All (n = 20),1 (5) n (%)
same,"Dry mouth, ≥ G3",All (n = 20),0 n (%)
same,"Electrocardiogram QT prolonged, All",All (n = 20),3 (15) n (%)
same,"Electrocardiogram QT prolonged, ≥ G3",All (n = 20),0 n (%)
same,"Electrolyte imbalance, All",All (n = 20),1 (5) n (%)
same,"Electrolyte imbalance, ≥ G3",All (n = 20),0 n (%)
same,"Hemoglobin decreased, All",All (n = 20),1 (5) n (%)
same,"Hemoglobin decreased, ≥ G3",All (n = 20),0 n (%)
same,"Hypertension, All",All (n = 20),4 (20) n (%)
same,"Hypertension, ≥ G3",All (n = 20),1 (5) n (%)
same,"Hyponatremia, All",All (n = 20),2 (10) n (%)
same,"Hyponatremia, ≥ G3",All (n = 20),0 n (%)
same,"Hypoparathyroidism, All",All (n = 20),1 (5) n (%)
same,"Hypoparathyroidism, ≥ G3",All (n = 20),0 n (%)
same,"Mouth ulceration, All",All (n = 20),1 (5) n (%)
same,"Mouth ulceration, ≥ G3",All (n = 20),0 n (%)
same,"Nausea, All",All (n = 20),2 (10) n (%)
same,"Nausea, ≥ G3",All (n = 20),0 n (%)
same,"Oropharyngeal pain, All",All (n = 20),1 (5) n (%)
same,"Oropharyngeal pain, ≥ G3",All (n = 20),0 n (%)
same,"Pain, All",All (n = 20),1 (5) n (%)
same,"Pain, ≥ G3",All (n = 20),0 n (%)
same,"Palmar-plantar erythrodysaesthesia syndrome, All",All (n = 20),1 (5) n (%)
same,"Palmar-plantar erythrodysaesthesia syndrome, ≥ G3",All (n = 20),0 n (%)
same,"Platelet count decreased, All",All (n = 20),6 (30) n (%)
same,"Platelet count decreased, ≥ G3",All (n = 20),2 (10) n (%)
same,"Proteinuria, All",All (n = 20),1 (5) n (%)
same,"Proteinuria, ≥ G3",All (n = 20),0 n (%)
same,"Pyrexia, All",All (n = 20),1 (5) n (%)
same,"Pyrexia, ≥ G3",All (n = 20),0 n (%)
same,"Sinus bradycardia, All",All (n = 20),1 (5) n (%)
same,"Sinus bradycardia, ≥ G3",All (n = 20),0 n (%)
same,"Stomatitis, All",All (n = 20),2 (10) n (%)
same,"Stomatitis, ≥ G3",All (n = 20),1 (5) n (%)
same,"Vomiting, All",All (n = 20),1 (5) n (%)
same,"Vomiting, ≥ G3",All (n = 20),0 n (%)
same,"leukopenia, All",All (n = 20),9 (45) n (%)
same,"leukopenia, ≥ G3",All (n = 20),1 (5) n (%)
same,"neutropenia, All",All (n = 20),7 (35) n (%)
same,"neutropenia, ≥ G3",All (n = 20),0 n (%)
same,"transaminase elevation, ≥ G3",All (n = 20),1 (5) n (%)
same,TRAE any grade: decreased appetite,all patients n = 20,30%
same,TRAE any grade: decreased platelet count,all patients n = 20,30%
same,TRAE any grade: hypertension,all patients n = 20,20%
same,TRAE any grade: leukopenia,all patients n = 20,45%
same,TRAE any grade: neutropenia,all patients n = 20,35%
same,TRAE any grade: transaminase elevation,all patients n = 20,65%
same,grade 3 TRAE: decreased appetite,all patients n = 20,5%
same,grade 3 TRAE: decreased blood sodium,all patients n = 20,5%
same,grade 3 TRAE: decreased platelet count,all patients n = 20,10%
same,grade 3 TRAE: elevated transaminase,all patients n = 20,5%
same,grade 3 TRAE: hypertension,all patients n = 20,5%
same,grade 3 TRAE: leukopenia,all patients n = 20,5%
same,grade 3 TRAE: stomatitis,all patients n = 20,5%
same,patients with at least one adverse event (AE),all patients n = 20,95%
same,patients with grade 3 TRAEs,all patients n = 20,15%
same,patients with treatment-related adverse events (TRAEs),all patients n = 20,80%
same,recommended dose for further study,in vivo,60~100 mg QD
same,MTD,oral QD,100 mg
